# According to patent US20240083908A1, “TETRAHYDROTHIENOPYRIMIDINESULFONAMIDE COMPOUNDS” (priority 2020, published 2024):
# Target: human recombinant PARG (Homo sapiens (Human), UniProt Q86W56)
# Test: PARG Activity Assay
# Format: biochemical
# Details: recombinant human PARG 0.0185 nM, 1 hour pre-incubation, poly (ADP-ribose) substrate-coated plate, Abs 450
# Procedure: In order to evaluate the PARG inhibitory activity of the present compound, the inhibitory activity of each test compound against human recombinant PARG was measured. The specific procedure is described below.
# Test compound was dissolved in dimethyl sulfoxide and prepared a 10 mM stock solution.
# PARG Activity Assay was performed in Streptavidin-coated 96-well plates. […] The substrate solution was added to the 96-well plate at the volume of 200 micro liter per well and incubated for 3 hours at room temperature. After the incubation, the substrate solution was discarded and assay plate was washed 4 times with 220 micro liter of PBS containing 0.1% Tween20 (PBST). […] The diluted enzyme solution was pre-incubated with compounds for 1 hour at room temperature in a 96-well plate and transferred 100 micro liter per well to the poly (ADP-ribose) substrate-coated assay plate. The plate was incubated for 1 hour at 25° C. and then washed 4 times with 220 micro liters of PBST. For the detection of non-digested poly (ADP-ribose) polymer on the plate, mouse anti-poly (ADP-ribose) antibody diluted with 0.2% BSA containing PBS was added 100 micro liters per well and incubated 1 hour at room temperature. Plate was washed 4 times with TBST and 100 micro liter of HRP-labeled anti-mouse Ig antibody was added to the wells. Plate was incubated for 30 minutes at room temperature and then washed 4 times with PBST. For the detection 100 micro liters of TMB substrate solution was added to the wells. After sufficient color development, reaction was stopped by addition of 50 micro liter of 0.2 M […]. The 450 nm absorbance (Abs 450) of each well was read with a micro plate reader. The assay was performed by duplicated and average of 2 independent assays were used for the determination of PARG inhibitor y activity.
# Wells treated with dimethyl sulfoxide instead of test compound solution were designated as a Negative Control of assay
# Wells treated with 0.2% BSA containing PBS instead of recombinant human PARG protein and with dimethyl sulfoxide instead of test compound solution were designated as a Positive Control of assay.
# The PARG Inhibitory Activity (%) was determined by the following formulation.
# PARG Inhibitory Activity (%)=[(AbsX−AbsA)/(AbsB−AbsA)]×100
# (wherein, • AbsA is absorbance (Abs 450) of Negative Control wells • AbsB is absorbance (Abs 450) of Positive Control wells • AbsX is absorbance (Abs 450) of wells treated with test compound.)
# In Table, Ex indicates an Example number shown below.
# human recombinant PARG, sequence (Q86W56 whole entry): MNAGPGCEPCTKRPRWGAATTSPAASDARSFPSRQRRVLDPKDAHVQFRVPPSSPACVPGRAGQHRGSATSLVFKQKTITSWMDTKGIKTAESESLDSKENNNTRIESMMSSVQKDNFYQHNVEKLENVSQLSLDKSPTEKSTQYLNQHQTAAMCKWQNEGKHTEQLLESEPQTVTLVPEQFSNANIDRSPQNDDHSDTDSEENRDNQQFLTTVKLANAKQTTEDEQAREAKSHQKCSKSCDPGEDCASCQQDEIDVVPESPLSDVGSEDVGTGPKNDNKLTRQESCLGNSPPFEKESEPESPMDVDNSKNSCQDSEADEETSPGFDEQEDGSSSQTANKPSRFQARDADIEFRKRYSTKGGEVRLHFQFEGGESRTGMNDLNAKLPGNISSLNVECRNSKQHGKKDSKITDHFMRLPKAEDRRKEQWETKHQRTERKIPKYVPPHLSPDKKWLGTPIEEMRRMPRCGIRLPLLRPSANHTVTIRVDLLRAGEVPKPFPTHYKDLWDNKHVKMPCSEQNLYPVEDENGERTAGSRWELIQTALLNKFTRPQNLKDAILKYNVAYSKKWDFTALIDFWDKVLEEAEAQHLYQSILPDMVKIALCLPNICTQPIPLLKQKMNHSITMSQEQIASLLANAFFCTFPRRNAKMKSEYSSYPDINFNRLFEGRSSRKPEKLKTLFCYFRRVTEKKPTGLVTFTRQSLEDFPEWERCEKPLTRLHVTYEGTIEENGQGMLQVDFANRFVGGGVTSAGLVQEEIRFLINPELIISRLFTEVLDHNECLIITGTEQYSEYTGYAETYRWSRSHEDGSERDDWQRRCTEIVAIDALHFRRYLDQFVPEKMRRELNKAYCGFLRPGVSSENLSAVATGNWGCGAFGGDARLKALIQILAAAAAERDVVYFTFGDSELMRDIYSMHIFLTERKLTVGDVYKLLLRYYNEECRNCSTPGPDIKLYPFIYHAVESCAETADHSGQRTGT
row,Structure (SMILES),IC50 [nM]
1,Cn1cc(Cn2c(=O)c3cc(S(=O)(=O)NC4(C)CC4)sc3n(Cc3ccc4c(c3)CNC4=O)c2=O)cn1 [Ex 60],24
2,Cn1cc(Cn2c(=O)c3cc(S(=O)(=O)NC4(C)CC4)sc3n(Cc3ccc(F)c(OCCO)c3)c2=O)cn1 [Ex 122],17
3,CN(CCO)c1ccc(Cn2c(=O)n(Cc3cnn(C)c3)c(=O)c3cc(S(=O)(=O)NC4(C)CC4)sc32)cc1F [Ex 76],57
4,CNc1ccc(Cn2c(=O)n(Cc3cnn(C)c3)c(=O)c3cc(S(=O)(=O)NC4(C)CC4)sc32)cc1F [Ex 73],17
5,CN(C)c1ccc(Cn2c(=O)n(Cc3cnn(C)c3)c(=O)c3cc(S(=O)(=O)NC4(C)CC4)sc32)cc1F [Ex 71],120
6,COc1c(F)cc(Cn2c(=O)n(Cc3cnn(C)c3)c(=O)c3cc(S(=O)(=O)NC4(C)CC4)sc32)cc1F [Ex 123],29
7,Cn1cc(Cn2c(=O)c3cc(S(=O)(=O)NC4(C)CC4)sc3n(Cc3cnn(CC(F)F)c3)c2=O)cn1 [Ex 56],36
8,CC(c1ccc2c(c1)COC2)n1c(=O)n(Cc2cnn(C)c2)c(=O)c2cc(S(=O)(=O)NC3(C)CC3)sc21 (centres unmarked) [Ex 112],140
9,Cc1c[nH]c(Cn2c(=O)n(Cc3cnn(C)c3)c(=O)c3cc(S(=O)(=O)NC4(C)CC4)sc32)c(C)c1=O [Ex 134],6040
10,CNc1ncc(Cn2c(=O)n(Cc3cnn(C)c3)c(=O)c3cc(S(=O)(=O)NC4(C)CC4)sc32)cn1 [Ex 54],49
11,CNS(=O)(=O)c1cc2c(=O)n(Cc3cnc(C)s3)c(=O)n(CC3CC3)c2s1 [Ex 23],97000
12,Cc1ncc(Cn2c(=O)c3cc(S(=O)(=O)NC4(C)CC4)sc3n(CC3CCCO3)c2=O)s1 (centres unmarked) [Ex 15],600
13,Cn1cc(Cn2c(=O)c3cc(S(=O)(=O)NC4(C)CC4)sc3n(Cc3ccc(=O)n(C)c3)c2=O)cn1 [Ex 88],23
14,CC#CCn1c(=O)n(Cc2cnn(C)c2)c(=O)c2cc(S(=O)(=O)NC3(C)CC3)sc21 [Ex 27],250
15,Cn1cc(Cn2c(=O)c3cc(S(=O)(=O)NC4(C)CC4)sc3n(Cc3ccc(N4CCOCC4)nc3)c2=O)cn1 [Ex 81],200
16,CNc1cc(Cn2c(=O)n(Cc3cnn(C)c3)c(=O)c3cc(S(=O)(=O)NC4(C)CC4)sc32)c(F)cc1F [Ex 124],73
17,Cn1cc(Cn2c(=O)c3cc(S(=O)(=O)NC4(C)CC4)sc3n(Cc3cnc(C#N)s3)c2=O)cn1 [Ex 35],35
18,COCc1cc2cc(Cn3c(=O)n(Cc4cnn(C)c4)c(=O)c4cc(S(=O)(=O)NC5(C)CC5)sc43)ccc2[nH]1 [Ex 89],13
19,Cn1cc(Cn2c(=O)c3cc(S(=O)(=O)NC4(C)CC4)sc3n(Cc3ccc(Cl)c(F)c3)c2=O)cn1 [Ex 47],130
20,Cc1cc(Cn2c(=O)n(Cc3cnc(C)s3)c(=O)c3cc(S(=O)(=O)NC4(C)CC4)sc32)n(C)n1 [Ex 3],29
21,Cn1cc(Cn2c(=O)c3cc(S(=O)(=O)NC4(C)CC4)sc3n(Cc3ccc4[nH]c(=O)oc4c3)c2=O)cn1 [Ex 39],21

row,Structure (SMILES),IC50 [nM]
1,Cn1cc(Cn2c(=O)c3cc(S(=O)(=O)NC4(C)CC4)sc3n(Cc3cnc4c(c3)OCCO4)c2=O)cn1 [Ex 65],68
2,Cn1cc(Cn2c(=O)c3cc(S(=O)(=O)NC4(C)CC4)sc3n(Cc3ccc4c(c3)CNC4)c2=O)cn1 [Ex 66],46
3,COc1ccc(Cn2c(=O)n(Cc3cnn(C)c3)c(=O)c3cc(S(=O)(=O)NC4(C)CC4)sc32)cn1 [Ex 44],48
4,Cc1ncc(Cn2c(=O)c3cc(S(=O)(=O)NC4(C)CC4)sc3n(Cc3ccc4[nH]ncc4c3)c2=O)s1 [Ex 4],11
5,Cc1cc2c(cc1Cn1c(=O)n(Cc3cnn(C)c3)c(=O)c3cc(S(=O)(=O)NC4(C)CC4)sc31)COC2 [Ex 113],94
6,Cn1cc(Cn2c(=O)c3cc(S(=O)(=O)NC4(C)CC4)sc3n(Cc3cc4c(cn3)COC4)c2=O)cn1 [Ex 41],97
7,Cc1ncc(Cn2c(=O)c3cc(S(=O)(=O)NC4(C)CC4)sc3n(Cc3ccc4cc[nH]c4c3)c2=O)s1 [Ex 11],160
8,Cn1cc(Cn2c(=O)c3cc(S(=O)(=O)NC4(C)CC4)sc3n(Cc3nc4c(s3)CCCC4)c2=O)cn1 [Ex 129],46
9,Cn1cc(Cn2c(=O)c3cc(S(=O)(=O)NC4(C)CC4)sc3n(Cc3cnc(NCCO)nc3)c2=O)cn1 [Ex 80],420
10,Cc1ncc(Cn2c(=O)c3cc(S(=O)(=O)NC(C)C)sc3n(CC3CC3)c2=O)s1 [Ex 22],93100
11,Cn1cc(Cn2c(=O)c3cc(S(=O)(=O)NC4(C)CC4)sc3n(Cc3ccc(OC(F)(F)F)cc3)c2=O)cn1 [Ex 52],100
12,Cn1cc(Cn2c(=O)c3cc(S(=O)(=O)NC4(C)CC4)sc3n(CC34CC(F)(C3)C4)c2=O)cn1 [Ex 119],240
13,Cn1cc(Cn2c(=O)c3cc(S(=O)(=O)NC4(C)CC4)sc3n(Cc3ccc(N4CC(O)C4)nc3)c2=O)cn1 [Ex 90],17
14,Cc1ncc(Cn2c(=O)c3cc(S(=O)(=O)NC4(C)CC4)sc3n(Cc3cc4n(n3)CCOC4)c2=O)s1 [Ex 19],130
15,CN(c1ccc(Cn2c(=O)n(Cc3cnn(C)c3)c(=O)c3cc(S(=O)(=O)NC4(C)CC4)sc32)cc1F)C1CC1 [Ex 74],210
16,COCc1ncc(Cn2c(=O)n(Cc3cnn(C)c3)c(=O)c3cc(S(=O)(=O)NC4(C)CC4)sc32)s1 [Ex 58],260
17,Cn1cc(Cn2c(=O)c3cc(S(=O)(=O)NC4(C)CC4)sc3n(Cc3ccc(F)cc3)c2=O)cn1 [Ex 46],9.2
18,Cn1cc(Cn2c(=O)c3cc(S(=O)(=O)NC4(C)CC4)sc3n(Cc3ccc4c(c3)NC(=O)C4)c2=O)cn1 [Ex 131],6.3
19,Cn1cc(Cn2c(=O)c3cc(S(=O)(=O)NC4(C)CC4)sc3n(Cc3cc4n(n3)CCOC4)c2=O)cn1 [Ex 33],35
20,CNCCCC(=O)N1CCC(n2c(=O)n(Cc3cnn(C)c3)c(=O)c3cc(S(=O)(=O)NC4(C)CC4)sc32)CC1 [Ex 96],130
21,Cn1cc(Cn2c(=O)c3cc(S(=O)(=O)NC4(C)CC4)sc3n(Cc3ccc(F)c(C#N)c3)c2=O)cn1 [Ex 70],60

row,Structure (SMILES),IC50 [nM]
1,Cn1cc(Cn2c(=O)c3cc(S(=O)(=O)NC4(C)CC4)sc3n(Cc3ccc(C#N)cc3)c2=O)cn1 [Ex 53],52
2,CN1Cc2ccc(Cn3c(=O)n(Cc4cnn(C)c4)c(=O)c4cc(S(=O)(=O)NC5(C)CC5)sc43)cc2C1=O [Ex 62],29
3,Cn1cc(Cn2c(=O)c3cc(S(=O)(=O)NC4(C)CC4)sc3n(Cc3cnc4[nH]ccc4c3)c2=O)cn1 [Ex 37],9
4,Cc1ncc(Cn2c(=O)c3cc(S(=O)(=O)NC4(C)CC4)sc3n(CCOC3CNC3)c2=O)s1 [Ex 7],210
5,CN1Cc2ccc(Cn3c(=O)n(Cc4cnn(C)c4)c(=O)c4cc(S(=O)(=O)NC5(C)CC5)sc43)cc2C1 [Ex 67],100
6,Cc1ncc(Cn2c(=O)c3cc(S(=O)(=O)NC4(C)CC4)sc3n(Cc3nc4c(o3)CCCC4)c2=O)s1 [Ex 20],110
7,CN1CCC(Cn2c(=O)n(Cc3cnn(C)c3)c(=O)c3cc(S(=O)(=O)NC4(C)CC4)sc32)CC1=O (centres unmarked) [Ex 87],220
8,CN1Cc2cc(Cn3c(=O)n(Cc4cnn(C)c4)c(=O)c4cc(S(=O)(=O)NC5(C)CC5)sc43)ccc2C1=O [Ex 45],13
9,Cn1cc(Cn2c(=O)c3cc(S(=O)(=O)NC4(C)CC4)sc3n(Cc3ccc(OC4CCC4)cc3)c2=O)cn1 [Ex 69],280
10,CCNS(=O)(=O)c1cc2c(=O)n(Cc3cnc(C)s3)c(=O)n(CC3CC3)c2s1 [Ex 21],75500
11,Cn1cc(Cn2c(=O)c3cc(S(=O)(=O)NC4(C)CC4)sc3n(Cc3ccc(OC(F)F)cc3)c2=O)cn1 [Ex 51],33
12,Cc1ncc(Cn2c(=O)c3cc(S(=O)(=O)NC4(C)CC4)sc3n(CCCN)c2=O)s1 [Ex 9],1070
13,COc1cc(Cn2c(=O)n(Cc3cnn(C)c3)c(=O)c3cc(S(=O)(=O)NC4(C)CC4)sc32)ccn1 [Ex 43],29
14,CCC(=O)N1CCC(n2c(=O)n(Cc3cnn(C)c3)c(=O)c3cc(S(=O)(=O)NC4(C)CC4)sc32)CC1 [Ex 93],180
15,Cc1cc(Cn2c(=O)n(Cc3cnn(C)c3)c(=O)c3cc(S(=O)(=O)NC4(C)CC4)sc32)ccc1F [Ex 135],37
16,CCN(C)c1ccc(Cn2c(=O)n(Cc3cnn(C)c3)c(=O)c3cc(S(=O)(=O)NC4(C)CC4)sc32)cc1F [Ex 72],190
17,Cn1cc(Cn2c(=O)c3cc(S(=O)(=O)NC4(C)CC4)sc3n(Cc3cncnc3)c2=O)cn1 [Ex 34],300
18,Cn1cc(Cn2c(=O)c3cc(S(=O)(=O)NC4(C#N)CC4)sc3n(Cc3ccc4oc(CO)cc4c3)c2=O)cn1 [Ex 102],75
19,Cc1ncc(Cn2c(=O)c3cc(S(=O)(=O)NC4(C)CC4)sc3n(Cc3nc4ccccc4[nH]3)c2=O)s1 [Ex 18],580
20,Cn1cc(Cn2c(=O)c3cc(S(=O)(=O)NC4(C)CC4)sc3n(Cc3ccc4c(c3)CCO4)c2=O)cn1 [Ex 59],22
